Patent publication US20020110590A1, “Pharmaceutical formulation containing DEMO for the treatment of cancer” (Ilex Oncology, Inc., priority 1996, published 2002)

Experiments:
[1] = molecular target: T1, ornithine decarboxylase (ODC) (Homo sapiens, UniProt P11926); details: reported by some (Danzin, 1987); cited from earlier work
T1 sequence (P11926 1-461): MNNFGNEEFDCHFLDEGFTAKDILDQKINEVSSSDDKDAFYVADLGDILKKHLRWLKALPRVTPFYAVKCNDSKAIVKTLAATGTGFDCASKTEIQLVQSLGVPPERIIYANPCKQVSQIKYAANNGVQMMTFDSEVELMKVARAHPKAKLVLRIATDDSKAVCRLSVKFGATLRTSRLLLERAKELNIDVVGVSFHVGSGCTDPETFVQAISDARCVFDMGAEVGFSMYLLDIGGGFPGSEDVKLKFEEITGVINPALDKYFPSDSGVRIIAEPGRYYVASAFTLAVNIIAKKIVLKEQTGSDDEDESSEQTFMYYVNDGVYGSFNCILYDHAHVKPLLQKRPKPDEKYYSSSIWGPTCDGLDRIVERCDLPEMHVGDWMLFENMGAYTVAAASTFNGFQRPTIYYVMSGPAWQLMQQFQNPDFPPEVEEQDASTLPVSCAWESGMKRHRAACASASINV

[2] = Solubility of DFMO; format: physicochemical
[3] = test system: polyamine pools; details: cited from earlier work
[4] = any route of drug administration; cited from earlier work
[5] = healthy men; cited from earlier work
[6] = test system: advanced solid tumors or lymphomas; details: patients with advanced solid tumors or lymphomas; cited from earlier work
[7] = oral administration; cited from earlier work

Structure (SMILES)	enantiomer responsible for ODC inhibition [1]	water solubility [2]	solubility of DFMO at a neutral pH ([2]; neutral pH versus acid)	minimum effective dose (MED) in significantly reducing polyamine pools in vivo [3]	therapeutic responses [4]	elimination half-life t½ [5]	share of drug elimination accounted for by renal clearance [5]	therapeutic responses [6]	maximum tolerated dose [7]
NCCC[C@](N)(C(=O)O)C(F)F [(−)-DFMO, alpha-difluoromethylornithine]	enantiomer primarily responsible for ODC inhibition	–	–	–	–	–	–	–	–
NCCC[C@](N)(C(=O)O)C(F)F (racemic) [DFMO, alpha-difluoromethylornithine]	–	very water-soluble	relatively lower solubility	about 0.43 g/day	No therapeutic responses	about 3.5 hours	83%	No therapeutic responses	about 12 g/m^2/day
